Measurements: patent US20140004192A1, “PHARMACEUTICAL FORMULATIONS OF INDIBULIN AND USES THEREOF” (Ziopharm Oncology, Inc., priority 2012, published 2014)
Where two headings read alike, the source gives them in different places.

Experiments:
[1] = Suspension stability by microcentrifuge dissolution test; type: physicochemical; conditions: dosed into MFDS
Protocol: Suspension stability of 10% A HPMCAS-H and 25% A HPMCAS-H formulations were evaluated using the microcentrifuge dissolution test, as detailed below.
First, a 0.5 wt % Methocel A (Methylcellulose, Methocel A4M Premium, DOW Chemical Company) vehicle was prepared and later used as the suspension vehicle. Specifically, this vehicle was prepared by adding 0.5 g of Methocel A to 30 mL deionized water at 90° C. and stirring until well dispersed. To the resultant dispersion was added 70 mL of water and the mixture was placed into an ice bath and stirred until Methocel A is dissolved.
A 20 mgA/mL indibulin SDD suspension of each of the 10% A HPMCAS-H and 25% A HPMCAS-H formulations was then prepared by adding the indibulin HPMCAS SDD to the aqueous 0.5 wt % Methocel A vehicle (as prepared above). Each suspension was then tested in the microcentrifuge dissolution test (as described above) immediately after constitution in the aqueous 0.5 wt % Methocel A vehicle (O-hour or Initial), and one hour after the constitution in the aqueous 0.5 wt % Methocel A vehicle. The stability of each suspension was determined by comparing the dissolution profile of the one-hour suspension to the performance of the initial suspension. […]

[2] = Membrane-permeation test; type: physicochemical; conditions: feed MFDS, 37° C.
Protocol: The 10% A HPMCAS-H(HPMCAS high grade), 15% A HPMCAS-H, 20% A HPMCAS-H, 25% A HPMCAS-H, 25% A HPMCAS-M (HPMCAS medium grade) and 50% A HPMCAS-M SDD formulations were also evaluated in a membrane-permeation test at 37° C. in a temperature-controlled box. Test procedures were described, for example, in U.S. Pat. No. 7,611,630. For example, a membrane-permeation test of 10% A HPMCAS-H indibulin SDD was performed using the following procedures: • 1. Accurately weigh 1 mgA (10 mg of 10% A:HPMCAS-H SDD) into the outer-glass reservoir of the test apparatus. All samples are prepared in duplicates. • 2. Add 5 mL MFDS and start the timer. • 3. Cap each reservoir and vortex at medium setting for 1 minute. Stir at 100 rpm. • 4. After 9 minutes of addition of MFDS, add 5 mL of 80/20 (wt/wt) […]/Decane permeate to the inside of the membrane cells. • 5. After 1 minute (at 10 minutes) place a cell containing the permeate solution into the outer reservoir holding the feed/drug solution. Take a O-minute time point. Tilt the entire apparatus at a 45° angle to ensure that no air bubbles are trapped under the membrane. • 6. Place apparatus back on stir plate at 100 rpm. • 7. […]
This test assessed the rate of solubilized drug indibulin that passed through a synthetic membrane from aqueous MFDS to an aqueous immiscible organic sink solution. […]

[3] = Rat pharmacokinetic study, first study; type: in vivo, rats (Sprague Dawley, male); conditions: plasma; for bioavailability: ratio of dose-normalized AUC0-10 oral/IV
Protocol: In the first study, the crystalline indibulin, 10% A and 25% A SDDs were administered p.o. at 10 and 15 mg/kg to rats (Sprague Dawley, male) and plasma concentrations of indibulin were determined at several time points.
In particular, all rats used in this study were fasted 12 hours prior to dose, and food was returned 4 hours post dose. 10% A and 25% A indibulin HPMCAS SDD formulations (as prepared in Example 1(a)) were used in this study. Indibulin in crystalline form was suspended in 0.5% Methocel A at 10 mg/kg, and 15 mg/kg by vortexing and sonicating. The indibulin SDD formulations were made by combining 10% active indibulin SDD at 10 mg/kg and 15 mg/kg, 25% active indibulin SDD at 10 mg/kg and 15 mg/kg using a mortar with 0.5% Methocel A and using a pestle to gradually mix in to solution. There were six rats per group, all animals were weighed and dose volume calculated so that each rat received test article orally at a volume of 10 mL/kg. The first three rats in each group were bled at 0.5, 2, and 6 hours post dose; the remaining three rats in each group were bled at 1, 4, and 10 hours post dose. For blood collection at all time points all animals were anesthetized with an inhalation of 4% isoflurane and 1.5% oxygen, once it was determined that the animal was adequately anesthetized (no reaction to physical stimulation) using a capillary tube the orbital venous plexus was punctured and a volume of 1 mL of blood was collected in to a sodium heparin tube. Once the blood was collected the sodium heparin tube was inverted ten times, and placed on ice until centrifuged for 10 minutes at 2510 rpm. The plasma was decanted in to labeled Eppendorfs and stored at −80° C. until analyzed by HPLC with MS/MS Detection. All data were acquired using Applied Biosystems/MDS-Sciex Analyst Version 1.5, processed; reported using Watson Version 7.3.0.01TM, Thermo Fisher Scientific, Inc.; and are summarized in FIGS. 12 and 14 and Tables 16, 17, and 18. Table 17 is summary of maximum plasma concentrations of indibulin (Cmax), time for maximum plasma concentration to occur (tmax), and plasma area under the curve values (AUC0-t). […] Table 18 also includes comparative data for a solutol/propylene glycol indibulin formulation, administered by IV and orally.

[4] = male, Sprague Dawley, po, First Study, rat p.o. 15 mg/kg (90 mg/m^2)

O=C(Nc1ccncc1)C(=O)c1cn(Cc2ccc(Cl)cc2)c2ccccc12 [Bulk Crystalline Drug, indibulin]
Cmax90 ([1]; 20 mgA/mL suspension in 0.5 wt % Methocel A, hold time 0 hr): 2000 ng/mL
AUC90 ([1]; suspension hold time 0 hr): 150 µg·min/mL
Average Flux [2]: 0.10 μgA/cm^2 × min
Tmax ([3]; Sprague Dawley, rat, Male S-D Rats, Oral (Gavage) 10 mg/kg): 2 h
bioavailability ([3]; Sprague Dawley, rat, Male S-D Rats, Oral (Gavage) 15 mg/kg, read-out: F (%)): 1.5%
half-life ([3]; Sprague Dawley, rat, Male S-D Rats, Oral (Gavage) 15 mg/kg, read-out: Terminal t1/2 (converted)): 5.9 h
bioavailability ([3]; Sprague-Dawley, rat, Male S-D Rats, Oral (Gavage) 10 mg/kg, read-out: F (%), absolute oral bioavailability): 2.4%
Cmax [3, 4]: 6 ng/mL
Tmax [3, 4]: 1 h
Cmax ([3]; male, Sprague Dawley, rat, po, 10 mg/kg, Male S-D Rats, Oral (Gavage) 10 mg/kg): 18 ng/mL
AUC(0-t) ([3]; male, Sprague Dawley, rat, po, 10 mg/kg, Male S-D Rats, Oral (Gavage) 10 mg/kg, read-out: AUC0-10): 63.6 ng·h/mL
AUC(0-t) ([3]; male, Sprague Dawley, rat, po, 15 mg/kg, First Study, rat p.o. 15 mg/kg (90 mg/m^2), read-out: AUC0-t): 31 ng·h/mL
Cmax ([3]; male, Sprague Dawley, rat, po, 15 mg/kg, Male S-D Rats, Oral (Gavage) 15 mg/kg): 16.5 ng/mL
AUC(0-t) ([3]; male, Sprague Dawley, rat, po, 15 mg/kg, Male S-D Rats, Oral (Gavage) 15 mg/kg, read-out: AUC0-10): 56.6 ng·h/mL
Tmax ([3]; male, Sprague-Dawley, po, First Study, rat p.o. 10 mg/kg (60 mg/m^2)): 2 h
Cmax ([3]; male, Sprague-Dawley, rat, po, 10 mg/kg, First Study, rat p.o. 10 mg/kg (60 mg/m^2)): 18 ng/mL
AUC(0-t) ([3]; male, Sprague-Dawley, rat, po, 10 mg/kg, First Study, rat p.o. 10 mg/kg (60 mg/m^2), read-out: AUC0-t): 61 ng·h/mL
Cmax ([3]; male, Sprague-Dawley, rat, po, 15 mg/kg, Male S-D Rats, Oral (Gavage) 15 mg/kg): 13 ng/mL
